pKi: −log10 of the molar value.
Assays:
Experiment in all cases: In Silico Screening
[1] = biological target: T1, 4-hydroxy-3-methylbut-2-enyl diphosphate reductase (Escherichia coli (strain K12), UniProt P62623)
T1 sequence (P62623 whole entry): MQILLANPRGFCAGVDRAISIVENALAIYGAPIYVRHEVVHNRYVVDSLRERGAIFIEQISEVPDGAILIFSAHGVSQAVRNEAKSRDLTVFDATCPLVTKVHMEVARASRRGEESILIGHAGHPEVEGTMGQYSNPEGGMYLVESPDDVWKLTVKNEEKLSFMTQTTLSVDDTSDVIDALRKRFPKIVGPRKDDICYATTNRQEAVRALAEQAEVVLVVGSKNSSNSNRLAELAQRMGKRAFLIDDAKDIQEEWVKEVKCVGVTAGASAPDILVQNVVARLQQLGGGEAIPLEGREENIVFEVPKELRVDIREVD
Description: (§1) In order to find new inhibitors, we carried out in silico screening of AaIspH and EcIspH using ZINC and National Cancer Institute (NCI) libraries and Glide docking, essentially as previously described.[Lindert et al., Chem. Biol. Drug Des., 81:742-748]

[2] = biological target: T2, 4-hydroxy-3-methylbut-2-enyl diphosphate reductase (Aquifex aeolicus (strain VF5), UniProt O67625)
T2 sequence (O67625 whole entry): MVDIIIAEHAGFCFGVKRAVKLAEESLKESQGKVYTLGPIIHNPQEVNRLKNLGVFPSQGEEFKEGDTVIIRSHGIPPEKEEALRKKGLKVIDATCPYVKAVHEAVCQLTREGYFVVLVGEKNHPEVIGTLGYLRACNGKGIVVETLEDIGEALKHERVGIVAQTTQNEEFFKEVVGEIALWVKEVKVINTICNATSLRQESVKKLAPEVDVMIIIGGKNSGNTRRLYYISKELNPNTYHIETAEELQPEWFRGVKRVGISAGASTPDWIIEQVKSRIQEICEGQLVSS
Description: as §1

[3] = biological target: T3, 4-hydroxy-3-methylbut-2-enyl diphosphate reductase (Pseudomonas aeruginosa (strain ATCC 15692 / PAO1 / 1C / PRS 101 / LMG12228), UniProt Q9HVM7)
T3 sequence (Q9HVM7 whole entry): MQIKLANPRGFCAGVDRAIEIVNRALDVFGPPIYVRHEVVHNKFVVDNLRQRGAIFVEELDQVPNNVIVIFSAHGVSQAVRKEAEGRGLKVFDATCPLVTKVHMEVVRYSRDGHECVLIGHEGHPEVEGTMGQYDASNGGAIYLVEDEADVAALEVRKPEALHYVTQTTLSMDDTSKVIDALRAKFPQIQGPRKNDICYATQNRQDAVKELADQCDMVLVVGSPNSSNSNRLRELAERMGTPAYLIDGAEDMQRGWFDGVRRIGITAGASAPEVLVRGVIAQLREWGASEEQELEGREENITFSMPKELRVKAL
Description: as §1

Structure (SMILES)	pKi [1]	pKi [2]	pKi [3]
Nc1ccc2c(c1)CC1(C(=O)NC(=O)NC1=O)C1CN(Cc3ccccc3)CCN21 (stereo not drawn) [8-Amino-3-benzyl-2,3,4,4 a-tetrahydro-1,2'H,6H-spiro[pyrazino[1,2-a]quinoline-5,5'-pyrimidine]-2',4',6'(1'H,3'H)-trione]	5.52	6.15	–
CCN1CCN2c3ccc(N)cc3CC3(C(=O)NC(=O)NC3=O)C2C1 (stereo not drawn) [IspH inhibitor, 8]	–	–	6.30

From BindingDB's records for doi:10.1002/cbic.201700052 (University of Illinois, 2017)
